# According to PubChem BioAssay (NCI):
#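 Interpolation was linear, between the two tested concentrations surrounding the appropriate level; five concentrations were tested over 48 hours in 96-well plates. The concentration for full growth arrest is given as TGI.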
# What was measured:
# Assay in all cases: NCI-60 cell line screen, 48 h
# A498 renal = tested on: A498 renal
# OVCAR-3 ovarian = tested on: OVCAR-3 ovarian
# SNB-19 CNS = tested on: SNB-19 CNS
# PC-3 prostate = tested on: PC-3 prostate
# MDA-MB-435 = tested on: MDA-MB-435
# HOP-62 NSCLC = tested on: HOP-62 NSCLC
# SNB-75 CNS = tested on: SNB-75 CNS
# DU-145 prostate = tested on: DU-145 prostate
# T-47D breast = tested on: T-47D breast
# MCF7 breast = tested on: MCF7 breast
# HS 578T breast = tested on: HS 578T breast
# MDA-N = tested on: MDA-N
# BT-549 breast = tested on: BT-549 breast
# LOX IMVI melanoma = tested on: LOX IMVI melanoma
# LXFL 529 NSCLC = tested on: LXFL 529 NSCLC
# DMS 273 small cell lung = tested on: DMS 273 small cell lung
# RXF-631 renal = tested on: RXF-631 renal
# SNB-78 CNS = tested on: SNB-78 CNS
# HCC-2998 colon = tested on: HCC-2998 colon
# M19-MEL melanoma = tested on: M19-MEL melanoma
smiles,measurement,setting,value
COC1/C=C/C(C)C(O)CC(O)/C=C/C(C)C(C(C)C(OC)C(C)CCC(=O)C(C)C(C/C=C/N(C)C=O)OC)OC(=O)/C=C/C=C(\C)CC(OC)CC2=CC(=O)O[C@@H](C(C)C(OC)C1)[C@H]2O (some centres not stated),TGI,A498 renal,0.0164 µM
same,TGI,OVCAR-3 ovarian,0.0106 µM
same,TGI,SNB-19 CNS,0.155 µM
same,TGI,PC-3 prostate,0.131 µM
same,TGI,MDA-MB-435,0.906 µM
same,TGI,HOP-62 NSCLC,0.0257 µM
same,TGI,SNB-75 CNS,0.00586 µM
same,TGI,DU-145 prostate,4.09 µM
same,TGI,T-47D breast,1.28 µM
same,TGI,MCF7 breast,0.0909 µM
same,TGI,HS 578T breast,0.0493 µM
same,TGI,MDA-N,0.136 µM
same,TGI,BT-549 breast,1.5 µM
COc1nc(Cl)nc(N[C@H](C)c2c3ccccc3cc3ccccc23)n1,TGI,OVCAR-3 ovarian,23.5 µM
same,TGI,SNB-19 CNS,31.1 µM
same,TGI,PC-3 prostate,31.5 µM
same,TGI,MDA-MB-435,15.1 µM
same,TGI,HOP-62 NSCLC,31.5 µM
same,TGI,LOX IMVI melanoma,33.2 µM
same,TGI,SNB-75 CNS,76.4 µM
same,TGI,DU-145 prostate,25 µM
same,TGI,T-47D breast,9.08 µM
same,TGI,MCF7 breast,29.2 µM
same,TGI,HS 578T breast,21.9 µM
same,TGI,MDA-N,8.99 µM
same,TGI,BT-549 breast,32.5 µM
CCOc1ccc2nc(NC(=O)C(=O)C(C(=O)c3ccccc3F)C3OC(=O)c4ccccc43)sc2c1 (configuration not stated),TGI,A498 renal,> 100 µM
same,TGI,SNB-19 CNS,40.2 µM
same,TGI,HOP-62 NSCLC,> 100 µM
same,TGI,SNB-75 CNS,46.4 µM
same,TGI,LXFL 529 NSCLC,77.8 µM
same,TGI,DMS 273 small cell lung,51.4 µM
same,TGI,RXF-631 renal,70.1 µM
same,TGI,SNB-78 CNS,74.4 µM
same,TGI,HCC-2998 colon,29.7 µM
same,TGI,M19-MEL melanoma,27 µM
COc1ccccc1NC(=O)C(=O)C(C(=O)c1ccccc1F)C1OC(=O)c2ccccc21 (configuration not stated),TGI,A498 renal,> 100 µM
same,TGI,SNB-19 CNS,64 µM
same,TGI,HOP-62 NSCLC,> 100 µM
same,TGI,LOX IMVI melanoma,39.2 µM
same,TGI,SNB-75 CNS,62.8 µM
same,TGI,LXFL 529 NSCLC,> 100 µM
same,TGI,DMS 273 small cell lung,> 100 µM
same,TGI,RXF-631 renal,67.8 µM
same,TGI,SNB-78 CNS,> 100 µM
same,TGI,HCC-2998 colon,28.8 µM
same,TGI,M19-MEL melanoma,61.6 µM
